Reference: US5223526A, “Pyrazole carboxanilide fungicides and use” (Monsanto Company, priority 1992, dated 1993)
Read-outs that look alike come from different tables or passages of the source.

Assays:
Botrytis cinerea [1] = experiment: Vine grey mold (grape berries); format: in vivo; settings: average of six berries, 7-10 days; for pest or weed control at 50 ppm: grape berries treated with 50 ppm, read-out: % DISEASE CONTROL 50 ppm; for pest or weed control at 200 ppm: grape berries treated with 200 ppm, read-out: % DISEASE CONTROL 200 ppm
How it was run: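 Preventive berry test: compound at 50 or 200 ppm (acetone/water, 0.05% Tween 20) applied one day before inoculation with 10^6 spores/mL Botrytis conidia. After 7-10 days at 20 °C under 12 h light, infected surface area rated; disease control expressed as percent reduction from control mean; repeated-test values averaged.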

succinate dehydrogenase = biological target: T1, succinate dehydrogenase (Botrytis cinerea, UniProt A0A384J5E4+A0A384J8V8+A0A384JHJ5); experiment: Enzyme inhibition: succinate dehydrogenase activity in Botrytis cinerea mitochondria (DCPIP reduction); format: biochemical
T1 construct: succinate-DCPIP reductase assay with KCN
T1 sequence (A0A384J5E4 1-300): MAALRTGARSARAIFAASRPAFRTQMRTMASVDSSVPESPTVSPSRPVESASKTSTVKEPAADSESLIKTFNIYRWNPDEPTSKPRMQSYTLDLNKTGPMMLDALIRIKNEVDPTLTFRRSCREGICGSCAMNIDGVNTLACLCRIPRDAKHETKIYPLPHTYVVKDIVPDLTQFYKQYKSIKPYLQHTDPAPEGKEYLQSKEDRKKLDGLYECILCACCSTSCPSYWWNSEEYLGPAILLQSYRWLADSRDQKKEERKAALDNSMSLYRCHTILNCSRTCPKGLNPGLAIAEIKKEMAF
T1 sequence (A0A384J8V8 1-189): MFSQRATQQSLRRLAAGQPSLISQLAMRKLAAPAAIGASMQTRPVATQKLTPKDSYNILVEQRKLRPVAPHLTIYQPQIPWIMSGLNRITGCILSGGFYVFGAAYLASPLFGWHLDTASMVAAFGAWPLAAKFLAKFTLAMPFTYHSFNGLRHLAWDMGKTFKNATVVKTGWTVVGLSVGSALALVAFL
T1 sequence (A0A384JHJ5 1-192): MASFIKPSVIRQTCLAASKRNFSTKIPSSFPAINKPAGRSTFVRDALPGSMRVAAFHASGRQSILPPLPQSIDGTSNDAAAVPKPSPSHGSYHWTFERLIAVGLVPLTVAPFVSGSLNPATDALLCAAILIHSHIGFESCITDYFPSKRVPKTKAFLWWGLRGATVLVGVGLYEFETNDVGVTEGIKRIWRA
T1 sequence (A0A384K456 1-647 partner): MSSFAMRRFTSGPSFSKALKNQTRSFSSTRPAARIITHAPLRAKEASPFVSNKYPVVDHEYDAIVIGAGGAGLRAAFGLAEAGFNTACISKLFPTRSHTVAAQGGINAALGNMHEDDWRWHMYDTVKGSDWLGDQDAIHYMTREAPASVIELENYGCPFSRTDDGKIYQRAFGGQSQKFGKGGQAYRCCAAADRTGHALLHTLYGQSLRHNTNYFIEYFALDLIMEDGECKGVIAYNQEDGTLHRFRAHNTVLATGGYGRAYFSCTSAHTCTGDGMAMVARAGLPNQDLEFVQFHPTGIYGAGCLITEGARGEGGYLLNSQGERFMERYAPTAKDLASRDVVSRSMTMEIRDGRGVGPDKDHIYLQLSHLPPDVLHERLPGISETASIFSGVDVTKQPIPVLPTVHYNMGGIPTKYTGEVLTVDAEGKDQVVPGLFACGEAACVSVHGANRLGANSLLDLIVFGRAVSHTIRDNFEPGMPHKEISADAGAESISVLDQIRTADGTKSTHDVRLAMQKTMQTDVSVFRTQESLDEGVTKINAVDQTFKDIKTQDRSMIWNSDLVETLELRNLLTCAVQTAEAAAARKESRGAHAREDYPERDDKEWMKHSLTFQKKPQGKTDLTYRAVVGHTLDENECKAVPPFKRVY
How it was run: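 Crude mitochondria from Botrytis cinerea isolate Nick mycelia, prepared by bead-beating and differential centrifugation, started reactions. SDH activity followed as DCPIP reduction at 600 nm in 50 mM K-phosphate pH 7.2 with 1 mM KCN, 45 μM DCPIP, 17 mM succinate, 1% acetone. I50 from semilog inhibition plots, corrected for succinate-free rates.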

Botrytis cinerea [2] = experiment: Eggplant grey mold; format: in vivo; set-up: scale not given here; settings: inoculated 24 h later, rated after 3-4 days; for Disease Control Rating at 20 ppm: eggplant sprayed with 20 ppm; for Disease Control Rating at 100 ppm: eggplant sprayed with 100 ppm; for Disease Control Rating at 500 ppm: eggplant sprayed with 500 ppm
How it was run: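 Protective test: compound formulations (2:3 acetone:water, 0.5% Tween 20; 500, 100 or 20 ppm) sprayed on 14-18-day-old plants, with spore inoculum (4×10^6 spore/mL) applied a day later. Disease control rated on Botrytis lesions after 3-4 days at 23 °C and 100% humidity.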

Rhizoctonia solani = experiment: Rice sheath blight; format: in vivo; set-up: scale not given here; settings: inoculated two days later, rated after 7 days, average of five plants; for Disease Control Rating at 0.5 mg/mL: foliage and soil sprayed with 0.5 mg/mL; for Disease Control Rating at 0.02 mg/mL: foliage and soil sprayed with 0.02 mg/mL; for Disease Control Rating at 0.1 mg/mL: foliage and soil sprayed with 0.1 mg/mL
How it was run: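 Rice plants 11–15 days old had foliage and soil sprayed with 0.5, 0.1 or 0.02 mg/mL Compound A in water/acetone/Tween 20, then kept in flooded trays. Two days later, rice-grain Rhizoctonia solani inoculum went to plant bases; disease control scored versus untreated after 7 days at 25 °C, high humidity, averaging five plants.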

[3] = concentration required to inhibit the rate of DCPIP reduction by 50%; Botrytis cinerea isolate Nick mitochondria; read-out: I50 (μM conc.)

Compound | pest or weed control at 50 ppm (Botrytis cinerea [1]) [%] | pest or weed control at 200 ppm (Botrytis cinerea [1]) [%] | IC50 (succinate dehydrogenase; [3]) [µM] | Disease Control Rating at 20 ppm (Botrytis cinerea [2]) | Disease Control Rating at 100 ppm (Botrytis cinerea [2]) | Disease Control Rating at 500 ppm (Botrytis cinerea [2]) | Disease Control Rating at 0.5 mg/mL (Rhizoctonia solani) | IC50 (succinate dehydrogenase; read-out: I50 (μM conc.); concentration required to inhibit the rate of DCPIP reduction by 50%; Botrytis cinerea isolate Nick mitochondria) [µM] | Disease Control Rating at 0.02 mg/mL (Rhizoctonia solani) | Disease Control Rating at 0.1 mg/mL (Rhizoctonia solani)
Cn1cc(C(=O)Nc2ccccc2CC2=CCCC2)c(C(F)F)n1 [Example 117, 1H-pyrazole-4-carboxamide, N-[2-(1-cyclopenten-1-ylmethyl)phenyl]-3-(difluoromethyl)-1-methyl-] | 80 | 19 | 0.17 | 0 | 1 | 2 | 0 | – | – | –
Cn1cc(C(=O)Nc2ccccc2C=C2CCCC2)c(C(F)F)n1 [Example 118, 1H-pyrazole-4-carboxamide, N-[2-(cyclopentylidenemethyl)phenyl]3-(difluoromethyl)-1-methyl-] | 37 | 87 | 0.029 | – | – | 0 | 1 | – | – | –
Cn1cc(C(=O)Nc2ccccc2C2=CCCCCCC2)c(C(F)F)n1 [Example 119] | 73 | 84 | – | 0 | 1 | 2 | 2 | 0.0035 | – | –
Cn1cc(C(=O)Nc2ccccc2C2=CCCCCCC2)c(C(F)(F)F)n1 [Example 120, 1H-pyrazole-4-carboxamide, N-[2-(1-cycloocten-1-yl)phenyl]-1-methyl-3-(trifluoromethyl)-] | 60 | 82 | 0.0041 | 0 | 0 | 2 | 3 | – | – | –
Cn1cc(C(=O)Nc2ccccc2C2=CC(C)(C)CC(C)(C)C2)c(C(F)F)n1 [Example 121, 1H-pyrazole-4-carboxamide, 3-(difluoromethyl)-1-methyl-N-[2-(3,3,5,5-tetramethyl-1-cyclohexen-1-yl)phenyl]-] | 33 | 64 | 0.0069 | 0 | 0 | 1 | 3 | – | 1 | 3
Cn1cc(C(=O)Nc2ccccc2C2=CCCC2(C)C)c(C(F)F)n1 [Example 122, 1H-pyrazole-4-carboxamide, 3-(difluoromethyl)-N-[2-(5,5-dimethyl-1-cyclopenten-1-yl)phenyl]-1-methyl-] | 67 | 79 | 0.034 | 1 | 2 | 2 | 0 | – | – | –
Cn1cc(C(=O)Nc2ccccc2C2=CC(C)(C)CC(C)(C)C2)c(C(F)(F)F)n1 [Example 123, 1H-pyrazole-4-carboxamide, 1-methyl-N-[2-(3,3,5,5-tetramethyl-1-cyclohexen-1-yl)phenyl]-3-(trifluoromethyl)-] | 14 | 36 | 0.023 | 0 | 0 | 0 | 0 | – | – | –
CC1=C(c2ccccc2NC(=O)c2cn(C)nc2C(F)F)C(C)CCC1 (stereo not drawn) [Example 124, 1H-pyrazole-4-carboxamide, 3-(difluoromethyl)-N-[2-(2,6-dimethyl-1-cyclohexen-1-yl)phenyl]-1-methyl-] | 48 | 96 | 0.013 | 0 | 1 | 2 | 2 | – | – | –
CCC1CC=C(c2ccccc2NC(=O)c2cn(C)nc2C(F)F)CC1 (stereo not drawn) [Example 125, 1H-pyrazole-4-carboxamide, 3-(difluoromethyl)-N-[2-(4-ethyl-1-cyclohexen-1-yl)phenyl]-1-methyl-] | 88 | 93 | 0.005 | 2 | 1 | 2 | 3 | – | 2 | 2
CCC1CC=C(c2ccccc2NC(=O)c2cn(C)nc2C(F)(F)F)CC1 (stereo not drawn) [Example 126, 1H-pyrazole-4-carboxamide, N-[2-(4-ethyl-1-cyclohexen-1-yl)phenyl]-1-methyl-3-(trifluoromethyl)-] | 59 | 97 | 0.0066 | 0 | 1 | 1 | 3 | – | – | –
Cn1cc(C(=O)Nc2ccccc2C=C2CCCC2)c(C(F)(F)F)n1 [Example 127, 1H-pyrazole-4-carboxamide, N-[2-(cyclopentylidenemethyl)phenyl]-1-methyl-3-(trifluoromethyl)-] | 12 | 52 | 0.083 | 0 | 0 | 1 | 2 | – | – | –
CC(C)C1=C(c2ccccc2NC(=O)c2cn(C)nc2C(F)(F)F)CCCC1 [Example 128, 1H-pyrazole-4-carboxamide, N-[2-[2-(1-methylethyl)-1-cyclohexen-1-yl]phenyl]-1-methyl-3-(trifluoromethyl)-] | 0 | 0 | 1.3 | 0 | 0 | 0 | 0 | – | – | –
Cn1cc(C(=O)Nc2ccccc2CC2CCCCC2)c(C(F)F)n1 [Example 129, 1H-pyrazole-4-carboxamide, N-[2-(cyclohexylmethyl)phenyl]-3-(difluoromethyl)-1-methyl-] | 7 | 0 | 0.11 | 0 | 0 | 0 | 3 | – | 3 | 3
Cn1cc(C(=O)Nc2ccccc2CC2CCCCC2)c(C(F)(F)F)n1 [Example 130, 1H-pyrazole-4-carboxamide, N-[2-(cyclohexylmethyl)phenyl]-1-methyl-3-(trifluoromethyl)-] | 2 | 21 | 0.37 | 0 | 0 | 0 | 2 | – | – | –
